Measurements from US9751854B2 (Millennium Pharmaceuticals, Inc., priority 2014, dated 2017).

Biological target: human VPS34 (Homo sapiens (Human), UniProt Q8NEB9)
Test: Human VPS34 enzyme assay (Adapta TR-FRET ADP detection)
Assay type: biochemical
Parameters: Percent Inhibition: dose or concentration left out as unconfirmed
Conditions: for IC50: IC50 range class

human VPS34, sequence (Q8NEB9 whole entry): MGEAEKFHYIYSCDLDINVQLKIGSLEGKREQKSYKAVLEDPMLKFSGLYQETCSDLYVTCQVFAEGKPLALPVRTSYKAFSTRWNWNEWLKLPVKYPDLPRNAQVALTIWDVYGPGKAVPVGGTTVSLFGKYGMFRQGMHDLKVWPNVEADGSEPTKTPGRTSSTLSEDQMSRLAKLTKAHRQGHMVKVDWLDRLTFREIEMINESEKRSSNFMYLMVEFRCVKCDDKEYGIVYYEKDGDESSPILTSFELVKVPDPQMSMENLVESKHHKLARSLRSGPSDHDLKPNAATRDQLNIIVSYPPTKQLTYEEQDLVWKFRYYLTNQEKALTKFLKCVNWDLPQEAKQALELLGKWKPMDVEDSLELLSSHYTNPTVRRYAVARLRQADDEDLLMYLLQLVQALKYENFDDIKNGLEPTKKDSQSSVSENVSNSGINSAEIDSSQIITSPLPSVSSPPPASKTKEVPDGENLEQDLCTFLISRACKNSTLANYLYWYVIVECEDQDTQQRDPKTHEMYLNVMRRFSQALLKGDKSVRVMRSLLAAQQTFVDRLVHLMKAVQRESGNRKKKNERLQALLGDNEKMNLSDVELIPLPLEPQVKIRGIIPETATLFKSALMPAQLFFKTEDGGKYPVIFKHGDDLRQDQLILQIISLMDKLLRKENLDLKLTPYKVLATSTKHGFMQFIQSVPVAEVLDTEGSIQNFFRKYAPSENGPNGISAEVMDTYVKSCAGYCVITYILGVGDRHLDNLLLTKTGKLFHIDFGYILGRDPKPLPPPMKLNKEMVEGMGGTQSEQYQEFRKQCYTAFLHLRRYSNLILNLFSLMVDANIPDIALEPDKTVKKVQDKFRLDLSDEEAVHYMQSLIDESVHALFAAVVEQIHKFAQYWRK

Row | IC50 | Percent Inhibition | SMILES
1 | 0.01 to 0.05 µM | – | CNS(=O)(=O)Nc1cc(-c2ccnc(NC(C)=O)c2)cnc1C [Compound I-455, N-{6-methyl-5-[(methylsulfamoyl)amino]-3,4′-bipyridin-2′-yl}acetamide]
2 | < 0.01 µM | – | CCOC(=O)Nc1cc(-c2cnc(C)c(NS(=O)(=O)c3ccc(Cl)cc3F)c2)ccn1 [Compound I-456, ethyl (5-{[(4-chloro-2-fluorophenyl)sulfonyl]amino}-6-methyl-3,4′-bipyridin-2′-yl}carbamate]
3 | 0.01 to 0.05 µM | – | Cc1nccc(Nc2cc(-c3cnc(Cl)c(C(=O)N4CCC4)c3C)ccn2)n1 [Compound I-457, axetidin-1-yl{6-chloro-4-methyl-2′-[(2-methylpyrimidin-4-yl)amino]-3,4′-bipyridine-5-yl)methanone]
4 | 0.01 to 0.05 µM | – | CC(=O)Nc1cc(-c2cncc(N(C)S(=O)(=O)N(C)C)c2)ccn1 [Compound I-458, N-{5-[(dimethylsulfamoyl)(methyl)amino]-3,4′-bipyridin-2′-yl}acetamide]
5 | 0.01 to 0.05 µM | – | CC(=O)Nc1cc(-c2cncc(S(=O)(=O)Nc3ccccc3)c2)ccn1 [Compound I-459, N-[5-(phenylsulfamoyl)-3,4′-bipyridin-2′-yl]acetamide]
6 | > 0.1 µM | – | CC(=O)Nc1cc(-c2cnc(C)c(N3CCCNC3=O)c2)ccn1 [Compound I-460, N-[6-methyl-5-(2-oxotetrahydropyrimidin-1(2H)-yl)-3,4′-bipyridin-2′-yl]acetamide]
7 | > 0.1 µM | – | CC(=O)Nc1cc(-c2cncc(S(=O)(=O)NC(C)(C)C)c2C)ccn1 [Compound I-462, N-(5-(N-(tert-butyl)sulfamoyl)-4-methyl-[3,4′-bipyridin]-2′-yl)acetamide]
8 | < 0.01 µM | – | CC(=O)Nc1cc(-c2cnc(C)c(NS(=O)(=O)c3c(Cl)cccc3Cl)c2)ccn1 [Compound I-463, N-[5-{[(2,6-dichlorophenyl)sulfonyl]amino}-6-methyl-3,4′-bipyridin-2′-yl)acetamide]
9 | 0.01 to 0.05 µM | – | CC(=O)Nc1cc(-c2cnc(C)c(NS(=O)(=O)c3cc(Cl)sc3Cl)c2)ccn1 [Compound I-465, N-[5-{[(2,5-dichloro-3-thienyl)sulfonyl]amino}-6-methyl-3,4′-bipyridin-2′-yl)acetamide]
10 | 0.01 to 0.05 µM | – | Cc1c(-c2ccnc(Nc3ccnc(C4CC4)n3)c2)cnc(Cl)c1C(=O)N1CC(C)(C)C1 [Compound I-466, (6-chloro-2′-[(2-cyclopropylpyrimidin-4-yl)amino]-4-methyl-3,4′-bipyridin-5-yl](3,3-dimethylazetidin-1-yl)methanone]
11 | < 0.01 µM | – | CC(=O)Nc1cc(-c2cnc(Cl)c(N3CCCN(C)S3(=O)=O)c2)ccn1 [Compound I-467, N-[6-chloro-5-(6-methyl-1,1-dioxido-1,2,6-thiadiazinan-2-yl)-3,4′-bipyridin-2′-yl)acetamide]
12 | 0.01 to 0.05 µM | – | CC(=O)Nc1cc(-c2cncc(S(=O)(=O)NC34CC5CC(CC(C5)C3)C4)c2)ccn1 [Compound I-468, N-[5-(adamantan-1-ylsulfamoyl)-3,4′-bipyridin-2′-yl]acetamide]
13 | 0.01 to 0.05 µM | – | CCc1c(-c2ccnc(NC(C)=O)c2)cnc(Cl)c1NS(=O)(=O)c1ccc(F)cc1F [Compound I-469, N-(6-chloro-5-{[(2,4-difluorophenyl)sulfonyl]amino}-4-ethyl-3,4′-bipyridin-2′-yl)acetamide]
14 | 0.01 to 0.05 µM | – | COc1ncc(-c2ccnc(NC(C)=O)c2)cc1S(=O)(=O)NC12CC(C1)C2 [Compound I-470]
15 | 0.01 to 0.05 µM | – | Cc1nccc(Nc2cc(-c3cnc(C)c(OC4CCCC4)c3)ccn2)n1 [Compound I-471, 5-(cyclopentyloxy)-6-methyl-N-(2-methylpyrimidin-4-yl)-3,4′-bipyridin-2′-amine]
16 | > 0.1 µM | – | CC(=O)Nc1cc(-c2cncc(Nc3ncco3)c2)ccn1 [Compound I-472, N-[5-(1,3-oxazol-2-ylamino)-3,4′-bipyridin-2′-yl]acetamide]
17 | 0.01 to 0.05 µM | – | CC(=O)Nc1cc(-c2cnc(Cl)c(N3CCCNS3(=O)=O)c2C)ccn1 [Compound I-473, N-[6-chloro-5-(1,1-dioxido-1,2,6-thiadiazinan-2-yl)-4-methyl-3,4′-bipyridin-2′-yl]acetamide]
18 | 0.01 to 0.05 µM | – | CC(=O)Nc1cc(-c2cncc(S(=O)(=O)N3CCC3)c2)ccn1 [Compound I-474, N-[5-(azetidin-1-ylsulfonyl)-3,4′-bipyridin-2′-yl]acetamide]
19 | 0.01 to 0.05 µM | – | Cc1nccc(Nc2cc(-c3cnc(C)c(Oc4ccccc4)c3)ccn2)n1 [Compound I-475, 6-methyl-N-(2-methylpyrimidin-4-yl)-5-phenoxy-3,4′-bipyridin-2′-amine]

Row | IC50 | Percent Inhibition | SMILES
20 | 0.01 to 0.05 µM | – | CC(=O)Nc1cc(-c2cc(NS(=O)(=O)N(C)C)c3ccnn3c2)ccn1 [Compound I-476, N-(4-{4-[(dimethylsulfamoyl)amino]pyrazolo[1.5-a]pyridin-6-yl}pyridin-2-yl)acetamide]
21 | 0.01 to 0.05 µM | – | CC(=O)Nc1cc(-c2cnc(Cl)c(NS(=O)(=O)N3CC4CCC3C4)c2C)ccn1 (stereo not drawn) [Compound I-477, N-{5-[(2-azabicyclo[2.2.1]hept-2-ylsulfonyl)amino]-6-chloro-4-methyl-3,4′-bipyridin-2′-yl}acetamide]
22 | 0.01 to 0.05 µM | – | CC(=O)Nc1cc(-c2cnc(C)c(OS(=O)(=O)c3ccc(F)cc3F)c2)ccn1 [Compound I-478, 2′-acetamido-6-methyl-3,4′-bipyridin-5-yl 2,4-difluorobenzenesulfonate]
23 | 0.01 to 0.05 µM | – | CCOc1cc(-c2ccnc(Nc3ccnc(C)n3)c2)cnc1C [Compound I-479, 5-ethoxy-6-methyl-N-(2-methylpyrimidin-4-yl)-3,4′-bipyridin-2′-amine]
24 | 0.05 to 0.1 µM | – | Cc1nccc(Nc2cc(-c3cc(N)c4ccnn4c3)ccn2)n1 [Compound I-480, 6-{2-[(2-methylpyrimidin-4-yl)amino]pyridin-4-yl}pyrazolo[1.5-a]pyridin-4-amine]
25 | 0.01 to 0.05 µM | – | CC(=O)Nc1cc(-c2cncc(S(=O)(=O)N3CCN(C)CC3)c2)ccn1 [Compound I-481]
26 | 0.05 to 0.1 µM | – | Cc1nccc(Nc2cc(-c3cnc(C)c(NC(=O)N4CC(F)(F)C4)c3)ccn2)n1 [Compound I-482, 3,3-difluoro-N-{6-methyl-2′-[(2-methylpyrimidin-4-yl)amino]-3,4′-bipyridin-5-yl}azetidine-1-carboxamide]
27 | 0.01 to 0.05 µM | – | CC(=O)Nc1cc(-c2cnc(C)c(NS(=O)(=O)N3CCC(C)(C)CC3)c2)ccn1 [Compound I-483, N-(5-{[(4,4-dimethylpiperidin-1-yl)sulfonyl]-amino}-6-methyl-3,4′-bipyridin-2′-yl)acetamide]
28 | 0.05 to 0.1 µM | – | CC(=O)Nc1cc(-c2cnc3c(c2)S(=O)(=O)NCCO3)ccn1 [Compound I-484, N-(4-(1,1-dioxido-3,4-dihydro-2H-pyrido[2,3-b][1,4,5]oxathiazepin-8-yl)pyridin-2-yl)acetamide]
29 | 0.01 to 0.05 µM | – | CC(=O)Nc1cc(-c2cnc(C)c(C(=O)N(C)c3ccc(F)cc3F)c2)ccn1 [Compound I-485, 2′-acetamido-N-(2,4-difluorophenyl)-N,6-dimethyl-3,4′-bipyridine-5-carboxamide]
30 | < 0.01 µM | – | Cc1nccc(Nc2cc(-c3cc(NS(=O)(=O)c4ccc(F)cc4F)c4ccnn4c3)ccn2)n1 [Compound I-486, 2,4-difluoro-N-(6-{2-[(2-methylpyrimidin-4-yl)amino]pyridin-4-yl}pyrazolo[1,5-a]pyridin-4-yl)benzenesulfonamide]
31 | > 0.1 µM | – | CC(=O)Nc1cc(-c2cnc(N(C)C)c(S(=O)(=O)NC(C)(C)C)c2C)ccn1 [Compound I-487, N-[5-(tert-butylsulfamoyl)-6-(dimethylamino)-4-methyl-3,4′-bipyridin-2′-yl]acetamide]
32 | 0.01 to 0.05 µM | – | CC(=O)Nc1cc(-c2cnc(Cl)c(NS(=O)(=O)N3CCCC3)c2C)ccn1 [Compound I-488, N-{6-chloro-4-methyl-5-[(pyrrolidin-1-ylsulfonyl)amino]-3,4′-bipyridin-2′-yl}acetamide]
33 | < 0.01 µM | – | CC(=O)Nc1cc(-c2cnc(N)c(N3CCCNS3(=O)=O)c2)ccn1 [Compound I-490, N-[6-amino-5-(1,1-dioxido-1,2,6-thiadiazinan-2-yl)-3,4′-bipyridin-2′-yl]acetamide]
34 | 0.01 to 0.05 µM | – | CC(=O)Nc1cc(-c2cnc(N(C)C)c(S(=O)(=O)Nc3ccc(F)cc3F)c2)ccn1 [Compound I-491, N-{5-[(2,4-difluorophenyl)sulfamoyl]-6-(dimethylamino)-3,4′-bipyridin-2′-yl}acetamide]
35 | > 0.1 µM | – | CC(=O)Nc1cc(-c2cnc(C)c(OCC3CC3)c2)ccn1 [Compound I-492, N-[5-(cyclopropylmethoxy)-6-methyl-3,4′-bipyridin-2′-yl]acetamide]
36 | 0.01 to 0.05 µM | 99% | CC(=O)Nc1cc(-c2cnc(Cl)c(NS(=O)(=O)c3cn(C)nc3C(F)(F)F)c2C)ccn1 [Compound I-493, N-[6-chloro-4-methyl-5-({[1-methyl-3-(trifluoromethyl)-1H-pyrazol-4-yl]sulfonyl}amino)-3,4′-bipyridin-2′-yl]acetamide]
37 | 0.05 to 0.1 µM | – | CC(=O)Nc1cc(-c2cnc(C)c(NS(=O)(=O)N(C)c3ccccc3)c2)ccn1 [Compound I-494, N-(6-methyl-5-{[methyl(phenyl)sulfamoyl]amino}-3,4′-bipyridin-2′-yl)acetamide]
38 | 0.01 to 0.05 µM | – | Cc1nccc(Nc2cc(-c3cnc(C)c(C(=O)N4CC(C)(C)C4)c3)ccn2)n1 [Compound I-495, (3,3-dimethylazetidin-1-yl){6-methyl-2′-[(2-methylpyrimidin-4-yl)amino]-3,4′-bipyridin-5-yl}methanone]
